Data reported in publication PMC11289882, “Site-directed allostery perturbation to probe the negative regulation of hypoxia inducible factor-1α” (RSC Chemical Biology, 2024).
Like-named read-outs stand apart in the source and are kept apart here. Non-standard residues stand in square brackets, D forms with d. Residues, ends and D or L forms follow the SMILES beside them. β3hE = N[C@@H](CCC(=O)O)CC(=O)O; β3hQ = NC(=O)CC[C@H](N)CC(=O)O; β3hD = NC(CC(=O)O)CC(=O)O; β3hS = N[C@@H](CO)CC(=O)O

Legend:
p300–Flu-HIF-1α = target: T1, p300–Flu-HIF-1α (Homo sapiens, UniProt Q09472); assay: Fluorescence anisotropy competition against p300–Flu-HIF-1α; format: binding; conditions: read-out: Kd,app FA competition against p300–Flu-HIF-1α
T1 construct: from residues 330-420 (used for FA and ITC experiments); GST (N, cleaved yes); made in house; host or cells: p300: E. coli BL21 pLysS (pGEX-4T-1); tracer peptide: solid-phase synthesis
T1 sequence (Q09472 330-420): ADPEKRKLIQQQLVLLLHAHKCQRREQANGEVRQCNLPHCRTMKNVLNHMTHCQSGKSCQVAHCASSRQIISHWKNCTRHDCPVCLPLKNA

[1] = target: T2, p300_330–420 (TAZ1 domain) (Homo sapiens, UniProt Q09472); assay: ITC direct titration to p300; format: binding; conditions: 5 µM p300_330–420 in cell, 60 µM ligand in syringe, 35 °C, 40 mM Na-phosphate pH 7.5, 100 mM NaCl, 1 mM DTT, global fit with ternary intermediate model, 68% confidence intervals in brackets, read-out: Direct binding to p300, K d
T2 construct: from residues 330-420 (used for FA and ITC experiments); GST (N, cleaved yes); made in house; host or cells: E. coli BL21 pLysS (pGEX-4T-1)
T2 sequence (Q09472 330-420): as above

p300-HIF-1α complex = target: p300-HIF-1α complex; parameters: method as in ref 2 (a number printed in a supplementary file, which may have a reference list of its own: not looked up in the article's list); conditions: ITC titration against p300-HIF-1α complex, 68% confidence intervals in brackets; read-out: Competition with HIF-1α, KD, apparent; cited from earlier work
p300–HIF-1α complex = assay: NMR competition, p300 with equimolar HIF-1α and CITED2 peptide (1H–15N HSQC); format: binding, human; conditions: 13C,15N-p300_330–424, 1.2 eq of each peptide, 10 mM Tris pH 6.9, 50 mM NaCl, 1 mM DTT, 298 K
Protocol: To investigate the reversibility of the competition, samples containing p300 with equimolar amounts of HIF-1α and CITED2_218–256 or CITED2ΔN were prepared. […] (Table S1, ESI ^†). […]
a = KHIF + KCIT + [HIF]t + [CIT]t − [P]t (16)
b = KHIFKCIT + KHIF([CIT]t − [P]t) + KCIT([HIF]t − [P]t) (17)
KHIF = dissociation constant for Flu-HIF-1α, KCIT = dissociation constant for the competitor CITED2 or variant, [CIT]t = total concentration of the competitor CITED2 or variant, [P]t = total concentration of […]
Fitted parameters were: KHIF, KCIT, [HIF]t, [P]t, rP:HIF, rHIF from which KHIF, rP:HIF, rHIF, [HIF]t were kept constant during fitting. KHIF, rP:HIF, rHIF was determined in a separate experiment using HIF-1α776-826 as a competitor
(Fig. S3) [HIF]t was determined using fluorescence intensity measurements relative to a fluorescein calibration curve. [P]t was kept as a floating parameter to account for incompetent protein fraction.
Anisotropy values were normalized and represented as ligand-bound (Lb) values (Eq. 19.) L = (r − rHIF) ∗ [HIF] (19) […]
into three samples: to the first CITED2224-256 was added, to the second CITED2218-256 was added in 1.2 equivalent relative to p300 concentration, and to the third, same volume of buffer was added, and concentrated down to final sample volume. Concentrations were determined based on UV absorbance at 280 nm for p300 and CITED2 variants and at 205 nm for HIF-1α. […]

p300/CBP [2] = target: p300/CBP; parameters: method as in ref 2 (a number printed in a supplementary file, which may have a reference list of its own: not looked up in the article's list); conditions: ITC, 68% confidence intervals in brackets; read-out: Direct binding to p300/CBP, KD; cited from earlier work
[3] = target: CBP bound Alexa594-CITED2; parameters: method as in 3 sources, one per row (each row's own in cited_ref): ref 1 (a number printed in a supplementary file, which may have a reference list of its own: not looked up in the article's list) ||| ref 3 (a number printed in a supplementary file, which may have a reference list of its own: not looked up in the article's list) ||| ref 4 (a number printed in a supplementary file, which may have a reference list of its own: not looked up in the article's list); conditions: FA titration against CBP bound Alexa594-CITED2; read-out: Direct binding to p300/CBP, KD, apparent; cited from earlier work
[4] = target: CBP bound Alexa594-HIF-1α; parameters: method as in 3 sources, one per row (each row's own in cited_ref): ref 1 (a number printed in a supplementary file, which may have a reference list of its own: not looked up in the article's list) ||| ref 3 (a number printed in a supplementary file, which may have a reference list of its own: not looked up in the article's list) ||| ref 4 (a number printed in a supplementary file, which may have a reference list of its own: not looked up in the article's list); conditions: FA titration against CBP bound Alexa594-HIF-1α; read-out: Competition with HIF-1α, KD, apparent; cited from earlier work
p300/CBP [5] = target: p300/CBP; parameters: method as in ref 1 (a number printed in a supplementary file, which may have a reference list of its own: not looked up in the article's list); conditions: bio-layer interferometry; read-out: Direct binding to p300/CBP, KD; cited from earlier work
[6] = 50 nM p300_330–420, 25 nM Flu-HIF-1α786–826 tracer, 40 mM Na-phosphate, 100 mM NaCl, 1 mM DTT, 0.01% Triton-X, pH 7.4, 10 min at 35 °C, fixed KD = 64 nM for tracer, three repeats

Compound | Kd (p300–Flu-HIF-1α; [6]) [µM] | Kd [1] [µM] | Kd (p300-HIF-1α complex) [µM] | Kd (p300/CBP [2]) [µM] | other results
CC[C@H](C)[C@H](NC(C)=O)C(=O)N[C@@H](CC(=O)O)C(=O)N[C@H](C(=O)N[C@@H](CC(=O)O)C(=O)N[C@@H](Cc1ccccc1)C(=O)N[C@H](C(=O)N[C@@H](CC(=O)O)C(=O)N[C@@H](CCC(=O)O)C(=O)N[C@@H](CCC(=O)O)CC(=O)N[C@H](C(=O)N[C@@H](CC(C)C)C(=O)N[C@@H](CCSC)C(=O)N[C@@H](CO)CC(=O)N[C@@H](CC(C)C)C(=O)N[C@H](C(=O)N[C@H](C(=O)N[C@@H](CCC(=O)O)CC(=O)N[C@@H](CCSC)C(=O)NCC(=O)N[C@@H](CC(C)C)C(=O)N[C@@H](CC(=O)O)C(=O)N[C@@H](CCCNC(=N)N)C(=O)N[C@H](C(=O)N[C@@H](CCCCN)C(=O)N[C@@H](CCC(=O)O)C(=O)N[C@@H](CC(C)C)C(=O)N1CCC[C@H]1C(=O)N[C@@H](CCC(=O)O)C(=O)N[C@@H](CC(C)C)C(=O)N[C@@H](Cc1c[nH]c2ccccc12)C(=O)N[C@@H](CC(C)C)C(=O)NCC(=O)N[C@@H](CCC(N)=O)C(=O)N[C@@H](CC(N)=O)C(=O)N[C@@H](CCC(=O)O)C(=O)N[C@@H](Cc1ccccc1)C(=O)N[C@@H](CC(=O)O)C(=O)N[C@@H](Cc1ccccc1)C(=O)N[C@@H](CCSC)C(N)=O)[C@@H](C)CC)[C@@H](C)CC)C(C)C)C(C)C)[C@@H](C)CC)[C@@H](C)O [compound 2] (Ac-IDTDFIDE[β3hE]VLM[β3hS]LVI[β3hE]MGLDRIKELPELWLGQNEFDFM-NH2) | 0.0049 ± 0.0008 | 0.016 | – | – | –
CC[C@H](C)[C@H](NC(C)=O)C(=O)N[C@@H](CC(=O)O)C(=O)N[C@H](C(=O)N[C@@H](CC(=O)O)C(=O)N[C@@H](Cc1ccccc1)C(=O)N[C@H](C(=O)N[C@@H](CC(=O)O)C(=O)N[C@@H](CCC(=O)O)C(=O)N[C@@H](CCC(=O)O)C(=O)N[C@H](C(=O)N[C@@H](CC(C)C)C(=O)N[C@@H](CCSC)C(=O)N[C@@H](CO)C(=O)N[C@@H](CC(C)C)C(=O)N[C@H](C(=O)N[C@H](C(=O)N[C@@H](CCC(=O)O)C(=O)N[C@@H](CCSC)C(=O)NCC(=O)N[C@@H](CC(C)C)C(=O)N[C@@H](CC(=O)O)C(=O)N[C@@H](CCCNC(=N)N)C(=O)N[C@H](C(=O)N[C@@H](CCCCN)C(=O)N[C@@H](CCC(=O)O)C(=O)N[C@@H](CC(C)C)C(=O)N1CCC[C@H]1C(=O)N[C@@H](CCC(=O)O)C(=O)N[C@@H](CC(C)C)C(=O)N[C@@H](Cc1c[nH]c2ccccc12)C(=O)N[C@@H](CC(C)C)C(=O)NCC(=O)N[C@@H](CCC(N)=O)CC(=O)N[C@@H](CC(N)=O)C(=O)N[C@@H](CCC(=O)O)CC(=O)N[C@@H](Cc1ccccc1)C(=O)N[C@@H](CC(=O)O)CC(=O)N[C@@H](Cc1ccccc1)C(=O)N[C@@H](CCSC)C(N)=O)[C@@H](C)CC)[C@@H](C)CC)C(C)C)C(C)C)[C@@H](C)CC)[C@@H](C)O [compound 4] (Ac-IDTDFIDEEVLMSLVIEMGLDRIKELPELWLG[β3hQ]N[β3hE]F[β3hD]FM-NH2) | 0.0017 ± 0.0007 | 0.017 | – | – | –
Ac-DEEVLMSLVIEMGLDRIKELPELWLGQNEFDFM-NH2 [CITED2ΔN] | 0.086 ± 0.005 | 0.051 | – | – | –
Ac-IDTDFIDEEVLMSLVIEMGLDRIKELPELWLGQNEFDFM-NH2 [CITED2_218–256] | – | 0.011 | – | – | Kd (p300–Flu-HIF-1α; as other FA competition values, average and standard deviation of two individual titrations (Fig. 2 and Fig. S11), SD): 0.002 ± 0.0009 µM
CITED2_224–259: CITED2 residues 224–259, longer C terminus, without N-terminal tail (DEEVLMSLVIEMGLDRIKELPELWLGQNEFDFMTDF; UniProt Q99967 224-259, looked up, fragment) | – | – | 0.012 | 0.009 | Species observed in sample with equimolar HIF-1α and CITED2 peptide (reversibility of competition) (p300–HIF-1α complex): did not influence competition efficiency or unidirectionality
CITED2216-246: CITED2 residues 216–246, previously reported (NVIDTDFIDEEVLMSLVIEMGLDRIKELPEL; UniProt Q99967 216-246, looked up, fragment) | – | – | – | – | Kd [3]: 5 ± 1 µM; Kd [4]: 0.21 ± 0.02 µM
CITED2216-248: CITED2 residues 216–248, previously reported (NVIDTDFIDEEVLMSLVIEMGLDRIKELPELWL; UniProt Q99967 216-248, looked up, fragment) | – | – | 0.047 | 0.303 | –
CITED2216-269: CITED2 residues 216–269, previously reported (NVIDTDFIDEEVLMSLVIEMGLDRIKELPELWLGQNEFDFMTDFVCKQQPSRVS; UniProt Q99967 216-269, looked up, fragment) | – | – | 0.0011 | 0.026 | Kd [3]: 0.01 ± 0.001 µM; Kd [4]: 0.0002 ± 0.0001 µM; Kd (p300/CBP [5]): 0.009 ± 0.002 µM
HIF-1α786-826: HIF-1α residues 786–826 | – | – | – | 0.043 | –
